# Test results reported in PubChem BioAssay (NCI).
#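 Protocol summary: plate cells (96-well), add compound at 5 concentrations, incubate 48 h, interpolate endpoints linearly. TGI is the concentration that stops growth completely.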
# Experiments:
# Test in all cases: DTP human tumour cell line panel, 48 h
# SW-620 colon = test system: SW-620 colon
# UACC-62 melanoma = test system: UACC-62 melanoma
# K-562 leukemia = test system: K-562 leukemia
# COLO 205 colon = test system: COLO 205 colon
# NCI-H460 lung = test system: NCI-H460 lung
# SNB-19 CNS = test system: SNB-19 CNS
# RXF 393 renal = test system: RXF 393 renal
# MOLT-4 leukemia = test system: MOLT-4 leukemia
# OVCAR-4 ovarian = test system: OVCAR-4 ovarian
# OVCAR-5 ovarian = test system: OVCAR-5 ovarian
# ACHN renal = test system: ACHN renal
# RPMI-8226 leukemia = test system: RPMI-8226 leukemia
# NCI-H522 lung = test system: NCI-H522 lung
# HOP-92 NSCLC = test system: HOP-92 NSCLC
# HS 578T breast = test system: HS 578T breast
# 786-0 renal = test system: 786-0 renal
# UO-31 renal = test system: UO-31 renal
# TK-10 renal = test system: TK-10 renal
# NCI-H23 lung = test system: NCI-H23 lung
# A498 renal = test system: A498 renal
# SN12C renal = test system: SN12C renal
# HL-60(TB) leukemia = test system: HL-60(TB) leukemia
# A549 NSCLC = test system: A549 NSCLC
# KM12 colon = test system: KM12 colon
# SF-268 CNS = test system: SF-268 CNS
# SF-539 CNS = test system: SF-539 CNS
# SNB-75 CNS = test system: SNB-75 CNS
# HCT-15 colon = test system: HCT-15 colon
# SK-MEL-28 melanoma = test system: SK-MEL-28 melanoma
# SK-MEL-2 melanoma = test system: SK-MEL-2 melanoma
# MDA-MB-435 = test system: MDA-MB-435
# BT-549 breast = test system: BT-549 breast
# HOP-62 NSCLC = test system: HOP-62 NSCLC
# CAKI-1 renal = test system: CAKI-1 renal
# M14 melanoma = test system: M14 melanoma
# NCI-H226 lung = test system: NCI-H226 lung
# IGROV1 ovarian = test system: IGROV1 ovarian
# OVCAR-8 ovarian = test system: OVCAR-8 ovarian
# T-47D breast = test system: T-47D breast
# HT29 colon = test system: HT29 colon
# MCF7 breast = test system: MCF7 breast
# MDA-MB-231 breast = test system: MDA-MB-231 breast
# HCT-116 colon = test system: HCT-116 colon
# EKVX NSCLC = test system: EKVX NSCLC
# SF-295 CNS = test system: SF-295 CNS
# PC-3 prostate = test system: PC-3 prostate
# OVCAR-3 ovarian = test system: OVCAR-3 ovarian
# LOX IMVI melanoma = test system: LOX IMVI melanoma
# DU-145 prostate = test system: DU-145 prostate
# NCI/ADR-RES ovarian = test system: NCI/ADR-RES ovarian
# MDA-N = test system: MDA-N
# U251 CNS = test system: U251 CNS
# SK-OV-3 ovarian = test system: SK-OV-3 ovarian
# SK-MEL-5 melanoma = test system: SK-MEL-5 melanoma
# CCRF-CEM leukemia = test system: CCRF-CEM leukemia
# MALME-3M melanoma = test system: MALME-3M melanoma
# UACC-257 melanoma = test system: UACC-257 melanoma
smiles,measurement,setting,value
COC(=O)Nc1nc2ccc(NS(=O)(=O)c3ccc(Cl)cc3)cc2[nH]1,TGI,SW-620 colon,> 100 µM
same,TGI,UACC-62 melanoma,33.5 µM
same,TGI,K-562 leukemia,> 100 µM
same,TGI,COLO 205 colon,24.5 µM
same,TGI,NCI-H460 lung,43.1 µM
same,TGI,SNB-19 CNS,29.6 µM
same,TGI,RXF 393 renal,26.4 µM
same,TGI,MOLT-4 leukemia,> 100 µM
same,TGI,OVCAR-4 ovarian,51.5 µM
same,TGI,OVCAR-5 ovarian,44.6 µM
same,TGI,ACHN renal,> 100 µM
same,TGI,RPMI-8226 leukemia,26.8 µM
same,TGI,NCI-H522 lung,8.19 µM
same,TGI,HOP-92 NSCLC,8.55 µM
same,TGI,HS 578T breast,8.86 µM
same,TGI,786-0 renal,56.3 µM
same,TGI,UO-31 renal,40.7 µM
same,TGI,TK-10 renal,17.7 µM
same,TGI,NCI-H23 lung,36.9 µM
same,TGI,A498 renal,9.91 µM
same,TGI,SN12C renal,72.3 µM
same,TGI,HL-60(TB) leukemia,12.6 µM
same,TGI,A549 NSCLC,72.1 µM
same,TGI,KM12 colon,14.9 µM
same,TGI,SF-268 CNS,67 µM
same,TGI,SF-539 CNS,30.4 µM
same,TGI,SNB-75 CNS,7.59 µM
same,TGI,HCT-15 colon,> 100 µM
same,TGI,SK-MEL-28 melanoma,27.3 µM
same,TGI,SK-MEL-2 melanoma,26.8 µM
same,TGI,MDA-MB-435,5.5 µM
same,TGI,BT-549 breast,55.2 µM
same,TGI,HOP-62 NSCLC,31.5 µM
same,TGI,CAKI-1 renal,21.1 µM
same,TGI,M14 melanoma,23.4 µM
same,TGI,NCI-H226 lung,47.2 µM
same,TGI,IGROV1 ovarian,7.81 µM
same,TGI,OVCAR-8 ovarian,54.7 µM
same,TGI,T-47D breast,60.7 µM
same,TGI,HT29 colon,15.5 µM
same,TGI,MCF7 breast,35.7 µM
same,TGI,MDA-MB-231 breast,28.5 µM
same,TGI,HCT-116 colon,11.1 µM
same,TGI,EKVX NSCLC,33.2 µM
same,TGI,SF-295 CNS,19.2 µM
same,TGI,PC-3 prostate,54.3 µM
same,TGI,OVCAR-3 ovarian,10.7 µM
same,TGI,LOX IMVI melanoma,16.9 µM
same,TGI,DU-145 prostate,62.6 µM
same,TGI,NCI/ADR-RES ovarian,47.7 µM
same,TGI,MDA-N,5.93 µM
same,TGI,U251 CNS,47.5 µM
same,TGI,SK-OV-3 ovarian,44.2 µM
same,TGI,SK-MEL-5 melanoma,16.7 µM
same,TGI,CCRF-CEM leukemia,56.9 µM
same,TGI,MALME-3M melanoma,43.7 µM
Cc1ccc(I)cc1N=C=S,TGI,SW-620 colon,> 100 µM
same,TGI,UACC-62 melanoma,31.6 µM
same,TGI,K-562 leukemia,54.7 µM
same,TGI,COLO 205 colon,34 µM
same,TGI,NCI-H460 lung,52.1 µM
same,TGI,SNB-19 CNS,70.1 µM
same,TGI,RXF 393 renal,40.6 µM
same,TGI,MOLT-4 leukemia,43.8 µM
same,TGI,OVCAR-4 ovarian,> 100 µM
same,TGI,OVCAR-5 ovarian,50.4 µM
same,TGI,ACHN renal,54.8 µM
same,TGI,RPMI-8226 leukemia,54.1 µM
same,TGI,NCI-H522 lung,36.6 µM
same,TGI,HOP-92 NSCLC,> 100 µM
same,TGI,HS 578T breast,91.8 µM
same,TGI,786-0 renal,60 µM
same,TGI,UO-31 renal,33 µM
same,TGI,TK-10 renal,88.7 µM
same,TGI,NCI-H23 lung,42.1 µM
same,TGI,A498 renal,48.8 µM
same,TGI,SN12C renal,49.3 µM
same,TGI,HL-60(TB) leukemia,44.3 µM
same,TGI,A549 NSCLC,82.3 µM
same,TGI,KM12 colon,36.9 µM
same,TGI,SF-268 CNS,75.8 µM
same,TGI,SF-539 CNS,35.4 µM
same,TGI,SNB-75 CNS,52.7 µM
same,TGI,HCT-15 colon,34.8 µM
same,TGI,SK-MEL-28 melanoma,39.2 µM
same,TGI,SK-MEL-2 melanoma,38.6 µM
same,TGI,MDA-MB-435,73.7 µM
same,TGI,BT-549 breast,30.5 µM
same,TGI,HOP-62 NSCLC,59.8 µM
same,TGI,CAKI-1 renal,71.2 µM
same,TGI,M14 melanoma,38.7 µM
same,TGI,NCI-H226 lung,39.9 µM
same,TGI,IGROV1 ovarian,> 100 µM
same,TGI,OVCAR-8 ovarian,> 100 µM
same,TGI,T-47D breast,42.5 µM
same,TGI,HT29 colon,53 µM
same,TGI,UACC-257 melanoma,63.9 µM
same,TGI,MCF7 breast,54.4 µM
same,TGI,MDA-MB-231 breast,71.1 µM
same,TGI,HCT-116 colon,91.9 µM
same,TGI,EKVX NSCLC,63.4 µM
same,TGI,SF-295 CNS,62.8 µM
same,TGI,PC-3 prostate,51.4 µM
same,TGI,OVCAR-3 ovarian,> 100 µM
same,TGI,LOX IMVI melanoma,53.8 µM
same,TGI,DU-145 prostate,96.1 µM
same,TGI,NCI/ADR-RES ovarian,63.3 µM
same,TGI,MDA-N,86.5 µM
same,TGI,U251 CNS,48.6 µM
same,TGI,SK-OV-3 ovarian,> 100 µM
same,TGI,SK-MEL-5 melanoma,30.1 µM
same,TGI,CCRF-CEM leukemia,57.2 µM
same,TGI,MALME-3M melanoma,61.5 µM
